Results reported in PubChem BioAssay (NCI).
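How tested: cells in 96-well plates exposed to compound for 48 hours at five concentrations. Here, GI50 denotes the concentration required for 50% inhibition of growth. TGI: total growth inhibition.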

Legend:
Test in all cases: growth of human tumour cells (NCI), 48 h
[1] = tested on: OVCAR-3 ovarian
[2] = tested on: SK-MEL-2 melanoma
[3] = tested on: HCC-2998 colon
[4] = tested on: SF-268 CNS
[5] = tested on: UO-31 renal
[6] = tested on: PC-3 prostate
[7] = tested on: HCT-15 colon
[8] = tested on: OVCAR-8 ovarian
[9] = tested on: NCI-H522 lung
[10] = tested on: MALME-3M melanoma
[11] = tested on: HL-60(TB) leukemia
[12] = tested on: NCI-H23 lung
[13] = tested on: M14 melanoma
[14] = tested on: HOP-92 NSCLC
[15] = tested on: SK-OV-3 ovarian
[16] = tested on: CAKI-1 renal
[17] = tested on: NCI-H460 lung
[18] = tested on: A498 renal
[19] = tested on: UACC-257 melanoma
[20] = tested on: SF-539 CNS
[21] = tested on: HS 578T breast
[22] = tested on: OVCAR-5 ovarian
[23] = tested on: SN12C renal
[24] = tested on: SK-MEL-28 melanoma
[25] = tested on: SW-620 colon
[26] = tested on: KM12 colon
[27] = tested on: SF-295 CNS
[28] = tested on: ACHN renal
[29] = tested on: T-47D breast
[30] = tested on: COLO 205 colon
[31] = tested on: IGROV1 ovarian
[32] = tested on: HT29 colon
[33] = tested on: 786-0 renal
[34] = tested on: NCI/ADR-RES ovarian
[35] = tested on: TK-10 renal
[36] = tested on: OVCAR-4 ovarian
[37] = tested on: HCT-116 colon
[38] = tested on: MDA-MB-231 breast
[39] = tested on: SK-MEL-5 melanoma
[40] = tested on: SNB-75 CNS
[41] = tested on: CCRF-CEM leukemia
[42] = tested on: A549 NSCLC
[43] = tested on: MOLT-4 leukemia
[44] = tested on: MDA-MB-435
[45] = tested on: EKVX NSCLC
[46] = tested on: UACC-62 melanoma
[47] = tested on: RXF 393 renal
[48] = tested on: K-562 leukemia
[49] = tested on: BT-549 breast
[50] = tested on: DU-145 prostate
[51] = tested on: U251 CNS
[52] = tested on: HOP-62 NSCLC
[53] = tested on: LOX IMVI melanoma
[54] = tested on: SNB-19 CNS
[55] = tested on: NCI-H226 lung
[56] = tested on: RPMI-8226 leukemia
[57] = tested on: MCF7 breast
[58] = tested on: SR leukemia

Q: Which results are given for `COc1cc(/C=C/C(=O)/C=C/c2cc(OC)c3c(c2)OCO3)cc2c1OCO2`?
A: GI50 [1]: 7.66 µM; TGI [1]: > 100 µM; GI50 [2]: > 100 µM; TGI [2]: > 100 µM; GI50 [3]: 1.98 µM; TGI [3]: 3.73 µM; GI50 [4]: 5.47 µM; TGI [4]: > 100 µM; GI50 [5]: 5.77 µM; TGI [5]: > 100 µM; GI50 [6]: 72.2 µM; TGI [6]: > 100 µM; GI50 [7]: 4.42 µM; TGI [7]: > 100 µM; GI50 [8]: 2.83 µM; TGI [8]: 12.9 µM; GI50 [9]: 14.5 µM; TGI [9]: > 100 µM; GI50 [10]: > 100 µM; TGI [10]: > 100 µM; GI50 [11]: 63.4 µM; TGI [11]: > 100 µM; GI50 [12]: 7.69 µM; TGI [12]: > 100 µM; GI50 [13]: 4.03 µM; TGI [13]: 19.4 µM; GI50 [14]: 58.5 µM; TGI [14]: > 100 µM; GI50 [15]: 3.46 µM; TGI [15]: 48.2 µM; GI50 [16]: > 100 µM; TGI [16]: > 100 µM; GI50 [17]: > 100 µM; TGI [17]: > 100 µM; GI50 [18]: > 100 µM; TGI [18]: > 100 µM; GI50 [19]: 3.52 µM; TGI [19]: 41.9 µM; GI50 [20]: 22.6 µM; TGI [20]: > 100 µM; GI50 [21]: 95.3 µM; TGI [21]: > 100 µM; GI50 [22]: > 100 µM; TGI [22]: > 100 µM; GI50 [23]: 30.9 µM; TGI [23]: > 100 µM; GI50 [24]: 39 µM; TGI [24]: > 100 µM; GI50 [25]: 3.38 µM; TGI [25]: > 100 µM; GI50 [26]: 1.98 µM; TGI [26]: 4.07 µM; GI50 [27]: 11.3 µM; TGI [27]: > 100 µM; GI50 [28]: 7.25 µM; TGI [28]: > 100 µM; GI50 [29]: 9.62 µM; TGI [29]: > 100 µM; GI50 [30]: 4.86 µM; TGI [30]: > 100 µM; GI50 [31]: 4.78 µM; TGI [31]: > 100 µM; GI50 [32]: 2.64 µM; TGI [32]: 6.7 µM; GI50 [33]: 9.63 µM; TGI [33]: > 100 µM; GI50 [34]: 52.8 µM; TGI [34]: > 100 µM; GI50 [35]: 30.3 µM; TGI [35]: > 100 µM; GI50 [36]: 52.8 µM; TGI [36]: > 100 µM; GI50 [37]: 1.21 µM; TGI [37]: 2.78 µM; GI50 [38]: 7.89 µM; TGI [38]: > 100 µM; GI50 [39]: 5.59 µM; TGI [39]: > 100 µM; GI50 [40]: 8.55 µM; TGI [40]: 42.5 µM; GI50 [41]: 5.95 µM; TGI [41]: > 100 µM; GI50 [42]: 3.05 µM; TGI [42]: 15.1 µM; GI50 [43]: 9 µM; TGI [43]: > 100 µM; GI50 [44]: 1.92 µM; TGI [44]: 4.22 µM; GI50 [45]: > 100 µM; TGI [45]: > 100 µM; GI50 [46]: 16.3 µM; TGI [46]: > 100 µM; GI50 [47]: 2.65 µM; TGI [47]: 6.57 µM; GI50 [48]: 22.9 µM; TGI [48]: > 100 µM; GI50 [49]: 3.02 µM; TGI [49]: 8.81 µM; GI50 [50]: 18.4 µM; TGI [50]: > 100 µM; GI50 [51]: 2.19 µM; TGI [51]: 6.45 µM; GI50 [52]: 4.46 µM; TGI [52]: > 100 µM; GI50 [53]: 1.89 µM; TGI [53]: 4.35 µM; GI50 [54]: 10.3 µM; TGI [54]: > 100 µM; GI50 [55]: 34.8 µM; TGI [55]: > 100 µM

Q: How did the TGI [2] turn out when `COC(=O)[C@H]1C=NN[C@@H]1C(=O)N1[C@H]2CC3CC[C@@]2(CS1(=O)=O)C3(C)C` was run?
A: Its TGI is > 100 µM.

Q: What about the TGI [3] of the same compound?
A: Its TGI is > 100 µM.

Q: What about the TGI [4] of the same compound?
A: The TGI was > 100 µM.

Q: What about the TGI [5] of the same compound?
A: The TGI was > 100 µM.

Q: What about the TGI [6] of the same compound?
A: Its TGI is > 100 µM.

Q: And the TGI [7]?
A: Its TGI is > 100 µM.

Q: And the TGI [56]?
A: The TGI was > 100 µM.

Q: And the TGI [8]?
A: The TGI was > 100 µM.

Q: What about the TGI [9] of the same compound?
A: The TGI was > 100 µM.

Q: What about the TGI [10] of the same compound?
A: The TGI was > 100 µM.

Q: And the TGI [11]?
A: The TGI was > 100 µM.

Q: And the TGI [12]?
A: Its TGI is > 100 µM.

Q: What about the TGI [13] of the same compound?
A: Its TGI is > 100 µM.

Q: What about the TGI [14] of the same compound?
A: The TGI was > 100 µM.

Q: What about the TGI [15] of the same compound?
A: Its TGI is > 100 µM.

Q: What about the TGI [16] of the same compound?
A: Its TGI is > 100 µM.

Q: And the TGI [17]?
A: Its TGI is > 100 µM.

Q: What about the TGI [18] of the same compound?
A: The TGI was > 100 µM.

Q: And the TGI [19]?
A: The TGI was > 100 µM.

Q: And the TGI [20]?
A: The TGI was > 100 µM.

Q: And the TGI [21]?
A: Its TGI is > 100 µM.

Q: What about the TGI [22] of the same compound?
A: The TGI was > 100 µM.

Q: What about the TGI [23] of the same compound?
A: The TGI was > 100 µM.

Q: What about the TGI [24] of the same compound?
A: Its TGI is > 100 µM.

Q: And the TGI [25]?
A: The TGI was > 100 µM.

Q: And the TGI [26]?
A: The TGI was > 100 µM.

Q: What about the TGI [27] of the same compound?
A: The TGI was > 100 µM.

Q: What about the TGI [28] of the same compound?
A: Its TGI is > 100 µM.

Q: And the TGI [30]?
A: Its TGI is > 100 µM.

Q: What about the TGI [31] of the same compound?
A: The TGI was > 100 µM.

Q: What about the TGI [34] of the same compound?
A: Its TGI is > 100 µM.

Q: And the TGI [35]?
A: Its TGI is > 100 µM.

Q: What about the TGI [36] of the same compound?
A: The TGI was > 100 µM.

Q: What about the TGI [57] of the same compound?
A: The TGI was > 100 µM.

Q: What about the TGI [58] of the same compound?
A: Its TGI is > 100 µM.

Q: What about the TGI [37] of the same compound?
A: The TGI was > 100 µM.

Q: And the TGI [38]?
A: Its TGI is > 100 µM.

Q: What about the TGI [39] of the same compound?
A: The TGI was > 100 µM.

Q: What about the TGI [41] of the same compound?
A: The TGI was > 100 µM.

Q: And the TGI [42]?
A: Its TGI is > 100 µM.

Q: And the TGI [43]?
A: Its TGI is > 100 µM.

Q: And the TGI [44]?
A: The TGI was > 100 µM.

Q: What about the TGI [45] of the same compound?
A: The TGI was > 100 µM.

Q: What about the TGI [48] of the same compound?
A: The TGI was > 100 µM.

Q: What about the TGI [49] of the same compound?
A: The TGI was > 100 µM.

Q: What about the TGI [50] of the same compound?
A: Its TGI is > 100 µM.

Q: And the TGI [51]?
A: Its TGI is > 100 µM.

Q: And the TGI [52]?
A: Its TGI is > 100 µM.

Q: And the TGI [53]?
A: Its TGI is > 100 µM.

Q: What about the TGI [54] of the same compound?
A: The TGI was > 100 µM.

Q: And the TGI [55]?
A: Its TGI is > 100 µM.
